The values below come from patent US20190049456A1, “METHOD FOR DETECTING OR SEPARATING/OBTAINING CIRCULATING TUMOR CELL EMPLOYING CELL PROLIFERATION METHOD” (priority 2016, published 2019).

The test system of the assay is circulating tumor cell (CTC). Briefly: CTC obtainment test (CTCs-inducing ability / CTC yield efficiency) by culture of patient PBMCs in test culture media. Type of assay: cell-based, human. The following applies: additive component study. The protocol:
Examples of the present invention followed experimental methods given below. Specifically, all experimental samples (peripheral blood from various cancer patients who donated blood) were aseptically treated by procedures given below. In the case where infections by various viruses such as HBV and HCV were found in advance according to information from each cooperating facility, the treatment thereof was tested aside from a non-infected group and proper medical waste treatment was carried out by medical waste treatment professionals. 1. A disposable 30 ml syringe for blood collection containing an appropriate amount of an anticoagulant heparin sodium (0.05 ml) was provided, and a disposable 30 ml blood collection syringe for serum procurement containing no heparin sodium was also provided. These syringes were respectively connected to insertion ports of L-type 180° three-way stopcock, while an appropriate 18-, 21- or 24-gauge butterfly needle was connected to the vascular vessel side to prepare for blood collection. 30 ml of blood per each sample was collected, and the following separation operation was carried out. 2. For serum collection, the blood collection syringe barrel with a needle put thereon was placed at 37° C. for 1 hour in a 5% CO2 incubator, followed by centrifugation at 3,000 rpm (800 G) at 4° C. for 30 minutes. […]

For the substance lipopolysaccharide [LPS], the CTC-inducing effect entry is “slightly observed”.
